Laboratory results taken from publication PMC7450990 (Journal of medicinal chemistry, 2019).

Assays:
[1] = molecular target: CYP3A4 (Homo sapiens, UniProt P08684); experiment: CYP3A4 inhibition
[2] = Parallel artificial membrane permeability assay; conditions: hexadecane membrane
[3] = system: Hh pathway (endogenous Gli1 mRNA levels), ASZ-001 cells; experiment: cells; conditions: Mus musculus, ASZ001, 48 h, read-out: IC50 (Hh pathway inhibition, Gli1 mRNA), ASZ-001 cells, 48 h incubation, Mean ± SEM
[4] = Metabolic stability; conditions: human, microsomes
[5] = system: Hh pathway (endogenous Gli1 mRNA levels), ASZ-001 cells; conditions: at the concentrations tested
[6] = molecular target: T1, Breast Cancer Resistance Protein (BCRP) (Homo sapiens, UniProt Q9UNQ0); experiment: Efflux pump substrate, BCRP; type: in vitro ADME
T1 sequence (Q9UNQ0 1-655): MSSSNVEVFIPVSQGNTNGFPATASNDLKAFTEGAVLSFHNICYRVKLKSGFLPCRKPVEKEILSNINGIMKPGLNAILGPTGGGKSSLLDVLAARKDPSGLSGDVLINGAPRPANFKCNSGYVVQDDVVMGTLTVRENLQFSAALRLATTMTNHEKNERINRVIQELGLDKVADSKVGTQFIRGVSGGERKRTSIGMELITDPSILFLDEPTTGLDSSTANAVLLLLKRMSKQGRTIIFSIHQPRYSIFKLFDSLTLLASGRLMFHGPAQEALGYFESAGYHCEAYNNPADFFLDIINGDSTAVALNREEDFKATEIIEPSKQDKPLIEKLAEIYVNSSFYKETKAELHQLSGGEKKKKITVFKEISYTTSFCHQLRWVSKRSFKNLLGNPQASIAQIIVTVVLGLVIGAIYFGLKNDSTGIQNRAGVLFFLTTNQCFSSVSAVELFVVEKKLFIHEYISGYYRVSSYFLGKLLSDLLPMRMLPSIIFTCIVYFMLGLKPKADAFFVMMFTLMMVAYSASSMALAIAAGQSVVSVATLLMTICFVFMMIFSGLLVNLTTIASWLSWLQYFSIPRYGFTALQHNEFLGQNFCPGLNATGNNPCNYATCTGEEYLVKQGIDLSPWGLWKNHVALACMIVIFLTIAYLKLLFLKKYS

[7] = molecular target: P-glycoprotein (P-gp) (Homo sapiens, UniProt P08183); experiment: Efflux pump substrate, P-gp; type: in vitro ADME
Chain of P-glycoprotein (P-gp) (P08183 whole entry): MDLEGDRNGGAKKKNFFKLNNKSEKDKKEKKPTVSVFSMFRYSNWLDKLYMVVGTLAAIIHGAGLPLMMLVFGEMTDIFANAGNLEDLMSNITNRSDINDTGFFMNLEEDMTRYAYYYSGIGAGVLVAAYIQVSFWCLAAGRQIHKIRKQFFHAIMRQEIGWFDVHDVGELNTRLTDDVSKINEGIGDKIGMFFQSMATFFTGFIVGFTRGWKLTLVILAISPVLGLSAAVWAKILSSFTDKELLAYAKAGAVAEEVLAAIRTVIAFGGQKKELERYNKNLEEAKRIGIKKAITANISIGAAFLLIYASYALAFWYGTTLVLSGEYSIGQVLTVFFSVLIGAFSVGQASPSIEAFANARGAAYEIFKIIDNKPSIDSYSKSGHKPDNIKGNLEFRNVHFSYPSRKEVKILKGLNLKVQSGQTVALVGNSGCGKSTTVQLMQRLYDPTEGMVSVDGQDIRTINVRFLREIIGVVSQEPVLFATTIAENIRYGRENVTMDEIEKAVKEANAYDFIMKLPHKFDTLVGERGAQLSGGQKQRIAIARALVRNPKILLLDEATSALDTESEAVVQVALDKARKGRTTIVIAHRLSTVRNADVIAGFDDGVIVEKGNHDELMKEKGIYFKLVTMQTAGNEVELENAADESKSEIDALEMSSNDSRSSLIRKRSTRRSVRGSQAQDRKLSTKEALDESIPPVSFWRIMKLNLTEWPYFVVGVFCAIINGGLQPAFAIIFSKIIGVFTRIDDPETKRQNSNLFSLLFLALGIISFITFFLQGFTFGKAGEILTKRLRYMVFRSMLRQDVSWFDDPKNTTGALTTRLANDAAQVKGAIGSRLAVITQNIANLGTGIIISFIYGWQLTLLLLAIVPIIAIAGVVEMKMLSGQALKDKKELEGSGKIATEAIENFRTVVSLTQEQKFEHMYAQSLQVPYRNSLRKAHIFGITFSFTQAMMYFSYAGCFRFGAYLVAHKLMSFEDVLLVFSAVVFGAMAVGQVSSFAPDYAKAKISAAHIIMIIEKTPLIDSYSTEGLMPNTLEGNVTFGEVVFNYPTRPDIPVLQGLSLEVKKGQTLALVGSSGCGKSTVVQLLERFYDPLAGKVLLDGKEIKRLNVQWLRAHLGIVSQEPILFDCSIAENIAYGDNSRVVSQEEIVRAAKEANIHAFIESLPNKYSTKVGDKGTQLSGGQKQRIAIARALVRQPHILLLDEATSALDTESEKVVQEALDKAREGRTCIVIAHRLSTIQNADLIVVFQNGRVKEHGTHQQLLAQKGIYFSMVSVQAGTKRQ

Chain of CYP3A4 (P08684 whole entry): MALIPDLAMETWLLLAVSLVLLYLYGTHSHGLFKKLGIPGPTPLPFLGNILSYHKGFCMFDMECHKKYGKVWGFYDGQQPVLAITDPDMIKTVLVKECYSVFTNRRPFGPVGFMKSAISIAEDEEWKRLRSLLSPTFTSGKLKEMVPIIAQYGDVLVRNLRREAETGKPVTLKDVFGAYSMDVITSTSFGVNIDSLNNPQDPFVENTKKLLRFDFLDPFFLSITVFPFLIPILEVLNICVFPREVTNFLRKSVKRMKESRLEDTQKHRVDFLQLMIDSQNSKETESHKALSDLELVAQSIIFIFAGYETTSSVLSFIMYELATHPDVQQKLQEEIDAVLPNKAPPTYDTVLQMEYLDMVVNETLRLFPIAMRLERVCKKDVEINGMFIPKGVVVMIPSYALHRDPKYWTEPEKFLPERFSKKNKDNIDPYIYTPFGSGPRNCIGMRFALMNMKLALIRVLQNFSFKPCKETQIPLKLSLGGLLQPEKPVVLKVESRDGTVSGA

| SMILES | IC50 [1] [µM] | IC50 [3] [µM] | other results |
| --- | --- | --- | --- |
| CC[C@@H](C)n1ncn(-c2ccc(N3CCN(c4ccc(OC[C@@H]5CO[C@](C)(c6ccc(Cl)cc6Cl)O5)cc4)CC3)cc2)c1=O [Compound 2a] | > 20 | – | – |
| CC[C@@H](C)n1ncn(-c2ccc(N3CCN(c4ccc(OC[C@@H]5CO[C@@](C)(c6ccc(Cl)cc6Cl)O5)cc4)CC3)cc2)c1=O [Compound 2b] | 1.02 | – | PAMPA -log Pe [2]: 9.0 |
| C[C@@]1(c2ccc(Cl)cc2Cl)OC[C@@H](COc2ccc(N3CCN(c4ccc(NC(=O)c5ccccc5)cc4)CC3)cc2)O1 [Compound 10, N-(4-(4-(4-(((2R,4R)-2-(2,4-dichlorophenyl)-2-methyl-1,3-dioxolan-4-yl)methoxy)phenyl)piperazin-1-yl)phenyl)benzamide] | – | > 10 | – |
| C[C@@]1(c2ccc(Cl)cc2Cl)OC[C@@H](COc2ccc(N3CCN(c4ccc(NC(=O)c5ccc6ccccc6c5)cc4)CC3)cc2)O1 [Compound 11, N-(4-(4-(4-(((2R,4R)-2-(2,4-dichlorophenyl)-2-methyl-1,3-dioxolan-4-yl)methoxy)phenyl)piperazin-1-yl)phenyl)-2-naphthamide] | – | > 10 | – |
| C[C@@]1(c2ccc(Cl)cc2Cl)OC[C@@H](COc2ccc(N3CCN(c4ccc(NC(=O)c5cccnc5)cc4)CC3)cc2)O1 [Compound 13, N-(4-(4-(4-(((2R,4R)-2-(2,4-dichlorophenyl)-2-methyl-1,3-dioxolan-4-yl)methoxy)phenyl)piperazin-1-yl)phenyl)nicotinamide] | > 30 | – | PAMPA -log Pe [2]: 7.9 ± 0.03 |
| C[C@@]1(c2ccc(Cl)cc2Cl)OC[C@@H](COc2ccc(N3CCN(c4ccc(NC(=O)c5ccncc5)cc4)CC3)cc2)O1 [Compound 14, N-(4-(4-(4-(((2R,4R)-2-(2,4-dichlorophenyl)-2-methyl-1,3-dioxolan-4-yl)methoxy)phenyl)piperazin-1-yl)phenyl)isonicotinamide] | – | > 10 | – |
| C[C@]1(c2ccc(Cl)cc2Cl)OC[C@@H](COc2ccc(N3CCN(c4ccc(NC(=O)c5ccccc5)cc4)CC3)cc2)O1 [Compound 15, N-(4-(4-(4-(((2S,4R)-2-(2,4-dichlorophenyl)-2-methyl-1,3-dioxolan-4-yl)methoxy)phenyl)piperazin-1-yl)phenyl)benzamide] | – | > 10 | – |
| C[C@]1(c2ccc(Cl)cc2Cl)OC[C@@H](COc2ccc(N3CCN(c4ccc(NC(=O)c5ccc6ccccc6c5)cc4)CC3)cc2)O1 [Compound 16, N-(4-(4-(4-(((2S,4R)-2-(2,4-dichlorophenyl)-2-methyl-1,3-dioxolan-4-yl)methoxy)phenyl)piperazin-1-yl)phenyl)-2-naphthamide] | – | > 10 | – |
| C[C@]1(c2ccc(Cl)cc2Cl)OC[C@@H](COc2ccc(N3CCN(c4ccc(NC(=O)c5cccnc5)cc4)CC3)cc2)O1 [Compound 18, N-(4-(4-(4-(((2S,4R)-2-(2,4-dichlorophenyl)-2-methyl-1,3-dioxolan-4-yl)methoxy)phenyl)piperazin-1-yl)phenyl)nicotinamide] | > 20 | – | – |
| C[C@]1(c2ccc(Cl)cc2Cl)OC[C@@H](COc2ccc(N3CCN(c4ccc(NC(=O)c5ccncc5)cc4)CC3)cc2)O1 [Compound 19, N-(4-(4-(4-(((2S,4R)-2-(2,4-dichlorophenyl)-2-methyl-1,3-dioxolan-4-yl)methoxy)phenyl)piperazin-1-yl)phenyl)isonicotinamide] | – | > 10 | – |
| C[C@@]1(c2ccc(Cl)cc2Cl)OC[C@@H](COc2ccc(N3CCN(c4ccc(NC(=O)c5cccc(O)c5)cc4)CC3)cc2)O1 [Compound 27, N-(4-(4-(4-(((2R,4R)-2-(2,4-dichlorophenyl)-2-methyl-1,3-dioxolan-4-yl)methoxy)phenyl)piperazin-1-yl)phenyl)-3-hydroxybenzamide] | > 30 | – | microsomal CLint [4]: < 3 µL/min/mg |
| C[C@]1(c2ccc(Cl)cc2Cl)OC[C@@H](COc2ccc(N3CCN(c4ccc(NC(=O)c5ccoc5)cc4)CC3)cc2)O1 [Compound 35, N-(4-(4-(4-(((2S,4R)-2-(2,4-dichlorophenyl)-2-methyl-1,3-dioxolan-4-yl)methoxy)phenyl)piperazin-1-yl)phenyl)furan-3-carboxamide] | – | – | Hh pathway inhibition, result in words [5]: inactive |
| C[C@]1(c2ccc(Cl)cc2Cl)OC[C@@H](COc2ccc(N3CCN(c4ccc(NC(=O)c5ccsc5)cc4)CC3)cc2)O1 [Compound 36, N-(4-(4-(4-(((2S,4R)-2-(2,4-dichlorophenyl)-2-methyl-1,3-dioxolan-4-yl)methoxy)phenyl)piperazin-1-yl)phenyl)thiophene-3-carboxamide] | – | – | Hh pathway inhibition, result in words [5]: inactive |
| CCC(C)n1ncn(-c2ccc(N3CCN(c4ccc(OCC5COC(Cn6cncn6)(c6ccc(Cl)cc6Cl)O5)cc4)CC3)cc2)c1=O (stereo not shown) [ITZ, Itraconazole] | – | – | Efflux Pump Substrates, BCRP [6]: not a substrate; Efflux Pump Substrates, P-gp [7]: not a substrate; half-life [4]: 27 ± 6.2 min |
